This note sets out measurements from ChEMBL document CHEMBL6092138, “Discovery of the potent covalent inhibitor with an acrylate warhead for SARS-CoV-2 3CL protease” (Bioorg Med Chem Lett, 2024).

For experiment [1], the system named is Human coronavirus OC43. The experiment can be described thus: Antiviral activity against HCoV OC43 infected in human Huh-7 cells assessed as inhibition of viral replication of CPE assay. As to conditions: Betacoronavirus 1, Huh-7. It is filed as functional, organism-based.
The test system of experiment [2] is Huh-7. The experiment can be described thus: Cytotoxicity against human Huh-7 cells assessed as reduction in cell viability measured after 7 days by celltiter-glo assay. It is filed as functional. Conditions: Huh-7, 168 h, time 7 day.
Experiment [3] addresses Replicase polyprotein 1ab (Severe acute respiratory syndrome coronavirus 2, UniProt P0DTD1). Put plainly: Inhibition of 6-his taggedSARS-Cov-2 3-CL protease using Dabcyl-KNSTLQSGLRKE-Edans as substrate preincubated for 60 mins followed by substrate addition by fluorescence based analysis.
The target in experiment [4] is Replicase polyprotein 1ab (Severe acute respiratory syndrome coronavirus 2) (UniProt P0DTD1). The experiment can be described thus: Binding affinity to 6-his taggedSARS-Cov-2 3-CL protease assessed as Kinact/Ki using Dabcyl-KNSTLQSGLRKE-Edans as substrate measured for 120 mins.

pEC50, pIC50: −log10 of the molar value. Bounds are passed on as bounds.

Consider `CC(C)(C)[C@H](NC(=O)C(F)(F)F)C(=O)N1C[C@H]2[C@@H]([C@H]1C(=O)N[C@H](C#N)C[C@@H]1CCNC1=O)C2(C)C` [NIRMATRELVIR], for which the pEC50 in experiment [1] was 7.14. The CC50 in experiment [2] is greater than 10000 nM. In experiment [3], `CN(C)CCOc1c(Cl)cc(C(NC(=O)C(C)(C)F)C(=O)N2C[C@H]3[C@@H]([C@H]2C(=O)N[C@H](C#N)C[C@@H]2CCNC2=O)C3(C)C)cc1Cl` (stereo not given in full) had a negative-log IC50 (pIC50) of 6.60.

Regarding `CN(C)CCOc1c(Cl)cc([C@H](NC(=O)C(F)(F)F)C(=O)N2C[C@H]3[C@@H]([C@H]2C(=O)N[C@H](C#N)C[C@@H]2CCNC2=O)C3(C)C)cc1Cl`, the negative-log IC50 (pIC50) in experiment [3] was 6.20. On to `CC(C)(C)[C@H](NC(=O)C(F)(F)F)C(=O)N1C[C@H]2[C@@H]([C@H]1C(=O)N[C@H](/C=C/C(N)=O)C[C@@H]1CCNC1=O)C2(C)C`, for which the pEC50 in experiment [1] is 5.04. In experiment [3], this molecule had a pIC50 of 7.63. In addition, the CC50 in experiment [2] was greater than 10000 nM. For the same molecule, in experiment [4], the K amounted to 9750 M⁻¹ s⁻¹. Turning to `COC(=O)/C=C/[C@H](C[C@@H]1CCNC1=O)NC(=O)[C@@H]1[C@@H]2[C@H](CN1C(=O)[C@@H](NC(=O)C(F)(F)F)C(C)(C)C)C2(C)C`, in experiment [1], the pEC50 is 7.01. The pIC50 in experiment [3] was 7.54. The 50% cytotoxic concentration (CC50) in experiment [2] is greater than 10000 nM. Besides, in experiment [4], the K worked out at 17200 M⁻¹ s⁻¹. With `CC(C)C(=O)N[C@H](C(=O)N1C[C@H]2[C@@H]([C@H]1C(=O)N[C@H](C#N)C[C@@H]1CCNC1=O)C2(C)C)c1cc(Cl)c(OCCN(C)C)c(Cl)c1`, in experiment [3], the negative logarithm of the IC50 (pIC50) was 6.69.

Molecule `CN(C)CCOc1c(Cl)cc([C@H](NC(=O)C(F)F)C(=O)N2C[C@H]3[C@@H]([C@H]2C(=O)N[C@H](C#N)C[C@@H]2CCNC2=O)C3(C)C)cc1Cl` gave a pIC50 in experiment [3] of 6.42.

Molecule `CC(=O)/C(C)=C\[C@H](C[C@@H]1CCNC1=O)NC(=O)[C@@H]1[C@@H]2[C@H](CN1C(=O)[C@@H](NC(=O)C(F)(F)F)C(C)(C)C)C2(C)C` had a pIC50 in experiment [3] of 7.30.
